Assay results: patent publication US9624235B2, “Compounds and methods for inhibition of AP endonuclease-1/redox factor-1 (HAPE1) activity” (University of Pittsburgh—Of the Commonwealth System of …, priority 2012, dated 2017)

Tests used:
[1] = tested on: T98G cells; assay: Potentiation of MeLex cytotoxicity, long term (10 d) CyQUANT assay; type: cell-based, human
Experimental: Cytotoxic Potentiation of Various DNA Damaging Agents. T98G cells maintained in growth medium were resuspended in fresh growth medium and seeded into 96-well plates at 2000 cells/well (short term cytotoxicity) or 100 cells/well (long term cytotoxicity) as described in the previous section. After 24 h, the cells were treated with serial dilutions of various DNA damaging drugs in absence or presence of APE-1 inhibitors. At the end of the treatment period, cell survival was assayed using CellTiter 96 AQueous or CyQUANT kits for the short- and long-term studies respectively.
Toxicity. It was assumed that inhibition of APE-1 activity would be lead to toxicity since genetic deletion of the protein is lethal to cells. […] The toxicities were also determined in combination with the DNA minor groove methylating agent, MeLex. MeLex efficiently and selectively generates N3-methyladenine, which is converted into an abasic site by a BER glycosylase and/or hydrolytic depurination. The T98G cell line is relatively resistant to DNA damaging anticancer agents due to expression of multiple drug resistance proteins and O^6-alkylguanine-DNA alkyltransferase. […] A goal of the development of APE-1 inhibitors is to determine if they can be used to enhance the activity of DNA alkylating agents.

[2] = molecular target: APE-1 (Homo sapiens (Human), UniProt P27695); assay: Fluorescence binding of 4 to APE-1 protein; settings: 1 μM APE-1, fluorescence increase
Experimental: Fluorescence and UV Spectrometry Binding Studies. The fluorescence spectra were measured at room temperature on a Cary Eclipse fluorescence spectrometer (Varian, Palo Alto, Calif.). The fluorescence properties of 1 and 4 were measured in 10 mM HEPES, 0.5 mM MgCl2, 100 mM KCl, 100 mM NaCl, 2% glycerol, in absence or presence of wild type (unmodified) hairpin DNA (5′-[…]-3′) or THF-modified hairpin DNA (5′-CGAXTTCGCAGGACCGAATTCG-3′) or APE-1 protein. A solution of 0.5 μM of either DNA sequence was titrated against 1-10 μM ethidium bromide (EtBr) to determine saturation of EtBr by fluorescence (530 nm excitation with 610 nm emission) and the subsequent displacement of EtBr (4 μM) by 1-20 μM 1 or 4 was also assayed. The APE protein-inhibitor binding fluorescence was assayed by titrating 0.1-20 μM of 4 against 1 μM of APE-1 protein.
Interaction of Inhibitors with APE-1 Protein. To establish whether there is a direct interaction between an inhibitor and APE-1, the fluorescence spectra of 4 was determined in the absence and presence of increasing amounts of the protein.

Sequence of APE-1 (P27695 whole entry): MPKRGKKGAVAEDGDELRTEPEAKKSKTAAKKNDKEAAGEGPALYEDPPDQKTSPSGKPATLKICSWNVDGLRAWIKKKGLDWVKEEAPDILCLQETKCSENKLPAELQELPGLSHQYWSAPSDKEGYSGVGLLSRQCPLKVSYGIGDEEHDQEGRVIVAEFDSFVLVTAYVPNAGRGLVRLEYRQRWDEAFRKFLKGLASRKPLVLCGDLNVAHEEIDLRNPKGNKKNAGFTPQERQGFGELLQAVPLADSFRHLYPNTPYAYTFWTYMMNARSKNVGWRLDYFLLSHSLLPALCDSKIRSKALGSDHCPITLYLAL

With CCn1c2ccccc2c2cc(/C=N/Nc3cc(C)nc4cc5c(cc34)OCO5)ccc21 [Compound 4] the “LD50 of MeLex in the presence of LD10 concentration of inhibitor” value [1] was 1.6 µM, the “maximum potentiation of MeLex” value [1] was “approximately 5 fold” and the Kd [2] was 6.15 µM.
